| Structure (SMILES) | melting point [°C] |
| --- | --- |
| CS(=O)(=O)Nc1cc(OC[C@@H](O)CN[C@H]2CC[C@H](c3ccc(O)cc3)CC2)ccc1O [Compound 1, trans-N-{2-Hydroxy-5-[((2S)-2-hydroxy-3-{[4-(4-hydroxyphenyl)cyclohexyl]amino}propyl)oxy]phenyl}methanesulfonamide] | 85 to 90 |
| CCOC(=O)COc1ccc([C@H]2CC[C@H](NC[C@H](O)COc3ccc(O)c(NS(C)(=O)=O)c3)CC2)cc1 [Compound 2, Ethyl trans-(4-{4-[((2S)-2-hydroxy-3-{4-hydroxy-3-[(methylsulfonyl)amino]phenoxy}propyl)amino]cyclohexyl}phenoxy)acetate] | 60 to 70 |
